Laboratory results: patent US9328093B2, “Selective inhibitors of ubiquitin specific protease 7, the pharmaceutical compositions thereof and their therapeutic applications” (HYBRIGENICS SA, priority 2010, dated 2016)

What was measured:
[1] = system: HCT116 colon cancer cells; experiment: HCT116 cell viability and proliferation assay (MTS); assay type: cell-based; conditions: Homo sapiens, HCT-116, 72 h, HCT116, 72 hours, read-out: Cell viability (MTS): HCT116 GI50 Day3
Description: HCT116 colon cancer cells were obtained from ATCC (American Type Culture Collection), and maintained in Mc Coy's 5A medium containing 10% FBS, 3 mM glutamine and 1% penicillin/streptomycin. Cells were incubated at 37° C. in a humidified atmosphere containing 5% CO2.
Cell viability was assayed using the MTS technique in 96-well culture plates (CellTiter 96® Aqueous Non-Radioactive Cell Proliferation Assay, Promega) according to the manufacturer's instructions. MTS (3-(4,5-dimethyl-thiazol-2-yl)-5-(3-carboxy-methoxyphenyl)-2-(4-sulfophenyl)-2H-tetra-zolium) is a MTT-derived tetrazolium that is reduced in metabolically active cells into a soluble, cell-permeant formazan. The amount of formazan, detected by its absorbance at 492 nm is proportional to the number of living, metabolically active cells.
10^3 HCT116 cells were seeded per well. 24 hours later, the medium was changed and the cells treated in triplicate with the concentrations of each compound from 100 μM to 50 nM. The compounds were diluted in 100% DMSO, whose final concentration on cells was kept at 0.5%.
Cells were incubated with the compounds for 72 hours, and their viability then assayed by the addition of MTS for 2 hours. Absorbance at 492 nm was measured directly from the 96-well culture plates. Gl50 (Growth Inhibition 50) concentrations for each compound were calculated using a sigmoidal variable slope fit (Prism 4.0, Graphpad Softwares). Values represent mean of three independent experiments.

USP8 = target: T1, USP8 (Homo sapiens, UniProt P40818); experiment: USP8 assay with GST-Ub52-Flag substrate (HTRF); assay type: biochemical; conditions: USP8 400 pM
T1 construct: His (from pFastBac-HT vector) (N); made in house; host or cells: Sf9 or High Five insect cells, baculovirus
T1 sequence (P40818 1-1118): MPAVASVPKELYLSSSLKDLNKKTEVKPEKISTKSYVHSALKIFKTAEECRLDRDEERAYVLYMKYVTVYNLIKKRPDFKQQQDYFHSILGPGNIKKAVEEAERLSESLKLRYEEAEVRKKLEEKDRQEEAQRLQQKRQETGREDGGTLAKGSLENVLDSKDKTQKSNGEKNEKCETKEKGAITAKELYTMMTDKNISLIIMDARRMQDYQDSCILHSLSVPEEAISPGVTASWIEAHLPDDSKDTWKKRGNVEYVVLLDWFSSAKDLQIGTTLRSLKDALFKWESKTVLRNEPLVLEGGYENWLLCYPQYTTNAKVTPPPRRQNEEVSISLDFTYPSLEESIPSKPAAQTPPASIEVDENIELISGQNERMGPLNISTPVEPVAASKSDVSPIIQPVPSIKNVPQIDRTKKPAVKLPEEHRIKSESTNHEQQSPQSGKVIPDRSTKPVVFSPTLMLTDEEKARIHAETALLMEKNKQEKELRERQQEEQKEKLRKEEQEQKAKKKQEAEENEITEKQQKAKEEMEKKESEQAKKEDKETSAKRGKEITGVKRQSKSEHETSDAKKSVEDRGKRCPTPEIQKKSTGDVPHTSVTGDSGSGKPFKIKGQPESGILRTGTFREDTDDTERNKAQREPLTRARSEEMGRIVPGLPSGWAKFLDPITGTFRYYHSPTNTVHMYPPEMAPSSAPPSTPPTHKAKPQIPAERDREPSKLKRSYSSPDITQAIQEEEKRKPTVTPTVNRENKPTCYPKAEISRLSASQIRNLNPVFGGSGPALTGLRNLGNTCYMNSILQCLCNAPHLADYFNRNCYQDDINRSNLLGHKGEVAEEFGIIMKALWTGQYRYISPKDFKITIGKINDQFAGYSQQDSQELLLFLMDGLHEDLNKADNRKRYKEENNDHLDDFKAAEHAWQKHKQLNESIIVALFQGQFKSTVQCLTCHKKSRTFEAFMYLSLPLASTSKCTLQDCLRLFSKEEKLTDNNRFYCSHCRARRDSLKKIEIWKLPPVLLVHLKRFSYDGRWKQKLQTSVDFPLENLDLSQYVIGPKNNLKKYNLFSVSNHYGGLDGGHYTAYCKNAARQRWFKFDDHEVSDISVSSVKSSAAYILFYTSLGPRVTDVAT
Description: (§1) For compounds 26 to 38, the in-vitro assays on USP7 and USP8 were carried out according to the following procedure
(§2) The present examples 26 to 38 makes it possible to validate the use of GST-Ub52-Flag in an assay based on the time-resolved measurement of fluorescence emitted by […] in homogenous medium.
(§3) The assay is carried out on multiwell assay plates. The plates are analyzed on a PHERAstar fluorimeter (BMG) after an overnight incubation at 4° C. (excitation 337 nm, emission 620 and 665 nm).
(§4) The reagents used were as follows: • Solution of USP7 at 200 pM and USP8 at 400 pM in 50 mM Tris HCl pH 7.6, Bovine Serum Albumin 0.05%, DTT 5 mM. • Anti-Flag-K (CIS bio international), solution at 0.2 μM in 0.8 M KF, 0.1 Bovine Serum Albumin, Tris HCl 25 mM pH 7.6. • Anti-GST antibody-XL665 conjugate (CIS bio international), solution at 2.6 μM in 0.8 M KF, 0.1% Bovine Serum Albumin, Tris HCl 25 mM pH 7.6. • GST-Ub52-flag solution at 14.75 μM & MBP_Ub52 at 37.7 μM are prepared by dilutions from the stock solution described above in 50 mM Tris HCl pH 7.6, EDTA 0.5 mM, Bovine Serum Albumin 0.05%, DTT 5 mM.
(§5) The enzyme reaction is carried out by mixing GST-Ub52-flag solution with 5 μl of USP7 solution (200 pM final) or 5 μl of USP8 (400 pM final). This mixture is incubated for one hour at room temperature on a multiwell assay plate. A 10 μl mixture of 5 μl of anti-Flag-K solution (0.2 μM) plus 5 μl of anti-GST-XL665 antibody (2.6 μM) is added to each well of the multiwell assay plate. The plate is read after an overnight incubation at 4° C. on a PHERAstar fluorimeter (BMG).
(§6) The decrease in the signal correlates with the increase in enzyme activity i.e. the cleavage of GST-Ub52-Flag substrate. The format used is therefore entirely suitable for a method of assaying an enzyme of the deubiquitinating type such as ubiquitin specific protease, but also for determining a modulator of this enzyme activity.
(§7) The same procedures as mentioned above for assaying the activity of enzymes of the deubiquitinating type are carried out but the various reaction mixtures are incubated with identical enzyme concentration, in the presence or absence of a test compounds 26 to 38. Data (mean values+/− standard deviation) were analyzed as % of control (no compound) and plotted as percentage versus the Log of the compound concentration using GraphPad (Prism).

USP7 = target: T2, USP7 (Homo sapiens, UniProt Q93009); experiment: USP7 assay with GST-Ub52-Flag substrate (HTRF); assay type: biochemical; conditions: USP7 200 pM
T2 construct: Full-length wild-type human USP7 and its catalytic mutant (cysteine 223 replaced by alanine, C223A) were produced as N-terminally His-tagged fusions; His (N); made in house; host or cells: Spodoptera frugiperda Sf9 (or High Five) insect cells, baculovirus pFastBac-HT-B
Description: as §1, §2, §3, §4, §5, §6, §7

SMILES	GI50 [1]	IC50 (USP8)	IC50 (USP7)
CCN(CC)CCNC(=O)c1ccc2c(Cl)c3c(nc2c1)CCCC3 [Example 7, 9-Chloro-5,6,7,8-tetrahydro-acridine-3-carboxylic acid (2-diethylamino-ethyl)-amide]	4.3 µM	–	–
O=C(c1ccc2c(Cl)c3c(nc2c1)CCCC3)N1CCCCCC1 [Example 12, Azepan-1-yl-(9-chloro-5,6,7,8-tetrahydro-acridin-3-yl)-methanone]	20 µM	–	–
O=C(NCCN1CCCCCC1)c1ccc2c(Cl)c3c(nc2c1)CCCC3 [Example 27, N-(2-(azepan-1-yl)ethyl)-9-chloro-5,6,7,8-tetrahydroacridine-3-carboxamide]	10 µM	> 200 µM	15.4 µM
CN1CCC(CN2CCN(C(=O)c3ccc4c(Cl)c5c(nc4c3)CCCC5)CC2)CC1 [Example 29, (9-chloro-5,6,7,8-tetrahydroacridine-3-yl)(4-((1-methylpiperidin-4-yl)methyl)piperazin-1-yl)methanone]	7.3 µM	> 200 µM	8.5 µM
CCN1CCCC1CNC(=O)c1ccc2c(Cl)c3c(nc2c1)CCCC3 (centres unmarked) [Example 2, 9-Chloro-5,6,7,8-tetrahydro-acridine-3-carboxylic acid (1-ethyl-pyrrolidin-2-ylmethyl)-amide]	5 µM	–	–
O=C(NCCN1CCCCC1)c1ccc2c(Cl)c3c(nc2c1)CCCC3 [Example 28, 9-chloro-N-(2-(piperidin-1-yl)ethyl)-5,6,7,8-tetrahydroacridine-3-carboxamide]	8.8 µM	> 200 µM	11.9 µM
CCN1CCC[C@H]1CNC(=O)c1ccc2c(Cl)c3c(nc2c1)CCCC3 [Example 37, (S)-9-chloro-N-((1-ethylpyrrolidin-2-yl)methyl)-5,6,7,8-tetrahydroacridine-3-carboxamide]	8.7 µM	> 200 µM	25.9 µM
CCCCN(CC)CCNC(=O)c1ccc2c(Cl)c3c(nc2c1)CCCC3 [Example 4, 9-Chloro-5,6,7,8-tetrahydro-acridine-3-carboxylic acid [2-(butyl-ethyl-amino)-ethyl]-amide]	4 µM	–	–
O=C(c1ccc2c(Cl)c3c(nc2c1)CCCC3)N1CCC(N2CCCCC2)CC1 [Example 16, [1,4′]Bipiperidinyl-1′-yl-(9-chloro-5,6,7,8-tetrahydro-acridin-3-yl)-methanone]	13.5 µM	–	–
CCCN(CCC)CCNC(=O)c1ccc2c(Cl)c3c(nc2c1)CCCC3 [Example 3, 9-Chloro-5,6,7,8-tetrahydro-acridine-3-carboxylic acid (2-dipropylamino-ethyl)-amide]	3.5 µM	–	–
O=C(NCCCN1CCCC1)c1ccc2c(Cl)c3c(nc2c1)CCCC3 [Example 8, 9-Chloro-5,6,7,8-tetrahydro-acridine-3-carboxylic acid (3-pyrrolidin-1-yl-propyl)-amide]	5.9 µM	–	–
CCCN(CCC)CCCNC(=O)c1ccc2c(Cl)c3c(nc2c1)CCCC3 [Example 6, 9-Chloro-5,6,7,8-tetrahydro-acridine-3-carboxylic acid (3-dipropylamino-propyl)-amide]	3.9 µM	–	–
CN1CCN(CCCNC(=O)c2ccc3c(Cl)c4c(nc3c2)CCCC4)CC1 [Example 15, 9-Chloro-5,6,7,8-tetrahydro-acridine-3-carboxylic acid [3-(4-methyl-piperazin-1-yl)-propyl]-amide]	7.4 µM	–	–

The remaining lines, values ahead:

GI50 [1]	IC50 (USP8)	IC50 (USP7)	SMILES
9.1 µM	> 200 µM	44.4 µM	CCN1CCC[C@@H]1CNC(=O)c1ccc2c(Cl)c3c(nc2c1)CCCC3 [Example 36, (R)-9-chloro-N-((1-ethylpyrrolidin-2-yl)methyl)-5,6,7,8-tetrahydroacridine-3-carboxamide]
7.8 µM	–	–	CN(C)CCNC(=O)c1ccc2c(Cl)c3c(nc2c1)CCCC3 [Example 11, 9-Chloro-5,6,7,8-tetrahydro-acridine-3-carboxylic acid (2-dimethylamino-ethyl)-amide]
2.8 µM	> 200 µM	24.5 µM	O=C(NCC1CCN(CCc2ccccc2)CC1)c1ccc2c(Cl)c3c(nc2c1)CCCC3 [Example 34, 9-chloro-N-((1-phenethylpiperidin-4-yl)methyl)-5,6,7,8-tetrahydroacridine-3-carboxamide]
5 µM	–	–	CCN(CC)CCCNC(=O)c1ccc2c(Cl)c3c(nc2c1)CCCC3 [Example 10, 9-Chloro-5,6,7,8-tetrahydro-acridine-3-carboxylic acid (3-diethylamino-propyl)-amide]
2 µM	–	–	Cc1cccc(CN2CCC(CNC(=O)c3ccc4c(Cl)c5c(nc4c3)CCCC5)CC2)c1 [Example 1, 9-Chloro-5,6,7,8-tetrahydro-acridine-3-carboxylic acid [1-(3-methyl-benzyl)-piperidin-4-ylmethyl]-amide]
3.6 µM	–	–	CC1CCCC(C)N1CCCNC(=O)c1ccc2c(Cl)c3c(nc2c1)CCCC3 (centres unmarked) [Example 9, 9-Chloro-5,6,7,8-tetrahydro-acridine-3-carboxylic acid [3-(2,6-dimethyl-piperidin-1-yl)-propyl]-amide]
5.9 µM	–	–	CCCN1CCN(CCCNC(=O)c2ccc3c(Cl)c4c(nc3c2)CCCC4)CC1 [Example 13, 9-Chloro-5,6,7,8-tetrahydro-acridine-3-carboxylic acid [3-(4-propyl-piperazin-1-yl)-propyl]-amide]
